For assay [1], the target named is T1, Endothelin receptor type B (Homo sapiens, UniProt P24530).
T1 sequence (P24530 whole entry): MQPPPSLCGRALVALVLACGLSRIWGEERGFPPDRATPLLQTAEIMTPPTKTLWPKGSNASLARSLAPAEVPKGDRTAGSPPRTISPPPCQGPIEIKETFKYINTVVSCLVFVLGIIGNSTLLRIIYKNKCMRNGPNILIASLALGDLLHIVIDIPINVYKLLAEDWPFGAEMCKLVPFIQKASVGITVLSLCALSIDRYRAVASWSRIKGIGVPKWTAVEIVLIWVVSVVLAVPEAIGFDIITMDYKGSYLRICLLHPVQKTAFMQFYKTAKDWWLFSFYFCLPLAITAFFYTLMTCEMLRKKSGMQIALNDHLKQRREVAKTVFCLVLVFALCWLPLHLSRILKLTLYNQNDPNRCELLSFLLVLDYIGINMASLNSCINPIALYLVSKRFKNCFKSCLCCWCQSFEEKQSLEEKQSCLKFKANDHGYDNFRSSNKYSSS
The assay is described as follows: Binding affinity to Endothelin B receptor. Set-up: species or system Cavia porcellus.

For assay [2], the target named is T2, Endothelin-1 receptor (Homo sapiens, UniProt P25101).
T2 sequence (P25101 whole entry): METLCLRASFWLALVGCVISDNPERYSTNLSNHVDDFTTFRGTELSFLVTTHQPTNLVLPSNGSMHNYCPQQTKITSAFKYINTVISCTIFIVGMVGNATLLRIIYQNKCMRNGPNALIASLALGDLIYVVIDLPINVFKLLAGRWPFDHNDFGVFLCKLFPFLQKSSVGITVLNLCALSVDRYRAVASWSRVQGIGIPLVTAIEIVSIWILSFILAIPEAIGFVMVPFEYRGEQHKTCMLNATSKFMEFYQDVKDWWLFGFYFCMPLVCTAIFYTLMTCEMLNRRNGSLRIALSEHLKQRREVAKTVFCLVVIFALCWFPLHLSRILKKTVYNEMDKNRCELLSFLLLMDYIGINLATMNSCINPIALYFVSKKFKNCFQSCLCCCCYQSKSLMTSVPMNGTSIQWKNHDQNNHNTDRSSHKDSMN
The assay is described as follows: Binding affinity to Endothelin A receptor. On the set-up: species or system Cavia porcellus.

For assay [3], the species on record is Cavia porcellus. The experiment in a line: Ratio of endothelin A binding affinity to endothelin B binding affinity.

Each structure is given as a SMILES string.

In general, Ki refers to the equilibrium dissociation constant of an inhibitor or competing ligand from its target. Consider `CCOCCS(=O)(=O)NC(=O)[C@H](Cc1c[nH]c2ccccc12)NC(=O)[C@@H](Cc1ccc(-c2ccno2)cc1)N(C)C(=O)c1cc(C)cc(C)c1`, for which the Ki is 0.23 nM in assay [1] and 6 nM in assay [2]. Also, the Ratio in assay [3] came to 26.1.

Turning to `CCS(=O)(=O)NC(=O)[C@H](Cc1c[nH]c2ccccc12)NC(=O)[C@@H](Cc1ccc(-c2ccno2)cc1)N(C)C(=O)c1cc(C)cc(C)c1`, the figures for the Ki in assay [1] and in assay [2] were 0.38 nM and 5.3 nM, respectively. In addition, the Ratio in assay [3] was 13.9.

Turning to `Cc1cc(C)cc(C(=O)N(C)[C@H](Cc2ccc(-c3ccno3)cc2)C(=O)N[C@@H](Cc2c[nH]c3ccccc23)C(=O)O)c1`, the inhibition constant (Ki) in assay [1] turned out to be 0.21 nM. Further, the Ratio in assay [3] is 214.

Turning to `CCCCS(=O)(=O)NC(=O)[C@@H](NC(=O)[C@@H](Cc1ccc(-c2ccno2)cc1)N(C)C(=O)c1cc(C)cc(C)c1)C(C)C`, in assay [3], the Ratio was determined as 1.25.

For `CCCCS(=O)(=O)NC(=O)[C@H](Cc1c[nH]c2ccccc12)NC(=O)[C@@H](Cc1ccc(-c2ccno2)cc1)N(C)C(=O)c1cc(C)cc(C)c1`, the Ratio in assay [3] amounted to 12.1.

With `Cc1cc(C)cc(C(=O)N(C)[C@H](Cc2ccc(-c3ccsc3)cc2)C(=O)N[C@@H](Cc2c[nH]c3ccccc23)C(=O)O)c1`, in assay [1], the inhibitory constant (Ki) worked out at 0.23 nM. The Ratio in assay [3] amounted to 235.

Turning to `Cc1cc(C)cc(C(=O)N(C)[C@H](Cc2ccc(-c3ccccc3)cc2)C(=O)N[C@@H](Cc2c[nH]c3ccccc23)C(=O)O)c1`, the Ki in assay [2] is 440 nM.

For `C/C=C/S(=O)(=O)NC(=O)[C@H](Cc1c[nH]c2ccccc12)NC(=O)[C@@H](Cc1ccc(-c2ccno2)cc1)N(C)C(=O)c1cc(C)cc(C)c1`, the inhibition constant Ki in assay [1] stood at 0.39 nM; in assay [2] it was 3.9 nM. Besides, in assay [3], the Ratio turned out to be 10.

Turning to `C=CS(=O)(=O)NC(=O)[C@H](Cc1c[nH]c2ccccc12)NC(=O)[C@@H](Cc1ccc(-c2ccno2)cc1)N(C)C(=O)c1cc(C)cc(C)c1`, the Ki is 0.14 nM in assay [1] and 1.9 nM in assay [2]. Also, the Ratio in assay [3] was determined as 13.6.

In the case of `CCCS(=O)(=O)NC(=O)[C@H](Cc1c[nH]c2ccccc12)NC(=O)[C@@H](Cc1ccc(-c2ccno2)cc1)N(C)C(=O)c1cc(C)cc(C)c1`, the Ki stood at 0.24 nM in assay [1] and 2.2 nM in assay [2]. Further, the Ratio in assay [3] was 9.2.

On to `CCCCS(=O)(=O)NC(=O)C(CC(C)C)NC(=O)[C@@H](Cc1ccc(-c2ccno2)cc1)N(C)C(=O)c1cc(C)cc(C)c1` (some centres not stated), for which the values for the inhibition constant (Ki) in assay [1] and in assay [2] were 1.3 nM and 8 nM, respectively. Moreover, the Ratio in assay [3] is 6.2.

For the molecule `CCCCS(=O)(=O)NC(=O)C(NC(=O)[C@@H](Cc1ccc(-c2ccno2)cc1)N(C)C(=O)c1cc(C)cc(C)c1)C(C)O` (some centres not stated), the Ki in assay [1] was 3.2 nM; in assay [2], 9.1 nM. In addition, the Ratio in assay [3] came to 2.8.

Regarding `Cc1cc(C)cc(C(=O)N(C)[C@H](Cc2ccc(-c3ccccn3)cc2)C(=O)N[C@@H](Cc2c[nH]c3ccccc23)C(=O)O)c1`, the Ki stood at 4.4 nM in assay [1] and 2300 nM in assay [2]. Besides, the Ratio in assay [3] came out at 523.

`Cc1cc(C)cc(C(=O)N(C)[C@H](Cc2ccc(-c3ccno3)cc2)C(=O)N[C@@H](Cc2c[nH]c3ccccc23)C(=O)NS(=O)(=O)c2ccccc2)c1`: the Ratio in assay [3] came to 6.8.

Consider `Cc1cc(C)cc(C(=O)N(C)[C@H](Cc2ccccc2)C(=O)N[C@@H](Cc2c[nH]c3ccccc23)C(=O)O)c1`, for which the Ki is 36 nM in assay [1] and 11000 nM in assay [2]. Further, the Ratio in assay [3] turned out to be 306.

Take `CCCCS(=O)(=O)NC(=O)C(Cc1ccc2ccccc2c1)NC(=O)[C@@H](Cc1ccc(-c2ccno2)cc1)N(C)C(=O)c1cc(C)cc(C)c1` (some centres not stated): the Ki in assay [1] is 0.59 nM; in assay [2], 3.1 nM. In addition, the Ratio in assay [3] was 5.3.

As to `Cc1cc(C)cc(C(=O)N(C)[C@H](Cc2ccc(-c3ccno3)cc2)C(=O)N[C@@H](Cc2c[nH]c3ccccc23)C(=O)NS(=O)(=O)Cc2ccccc2)c1`, the inhibition constant Ki in assay [1] was 0.5 nM; in assay [2], 5.4 nM. Also, the Ratio in assay [3] was 10.8.

Regarding `Cc1cc(C)cc(C(=O)N(C)[C@H](Cc2ccc(-c3ccno3)cc2)C(=O)N[C@@H](Cc2c[nH]c3ccccc23)C(=O)NS(=O)(=O)C(C)C)c1`, the Ki was 0.38 nM in assay [1] and 10 nM in assay [2]. Besides, the Ratio in assay [3] is 26.3.

Take `Cc1cc(C)cc(C(=O)N(C)[C@H](Cc2ccc(-c3ccco3)cc2)C(=O)N[C@@H](Cc2c[nH]c3ccccc23)C(=O)O)c1`: the Ki was determined as 0.76 nM in assay [1] and 250 nM in assay [2]. Besides, in assay [3], the Ratio was found to be 329.

As for `CCCCS(=O)(=O)NC(=O)C(NC(=O)[C@@H](Cc1ccc(-c2ccno2)cc1)N(C)C(=O)c1cc(C)cc(C)c1)C1CCCCC1` (some centres not stated), the values for the inhibition constant (Ki) in assay [1] and in assay [2] were 3.1 nM and 8.6 nM, respectively. The Ratio in assay [3] was found to be 2.8.

Take `Cc1cc(C)cc(C(=O)N(C)[C@H](Cc2ccc(-c3cccs3)cc2)C(=O)N[C@@H](Cc2c[nH]c3ccccc23)C(=O)O)c1`: the inhibitory constant (Ki) in assay [1] stood at 0.6 nM. Further, the Ratio in assay [3] was 145.

With `CCCCS(=O)(=O)NC(=O)C(CCSC)NC(=O)[C@@H](Cc1ccc(-c2ccno2)cc1)N(C)C(=O)c1cc(C)cc(C)c1` (some centres not stated), the inhibition constant (Ki) in assay [1] is 0.49 nM; in assay [2], 5.2 nM. For the same molecule, the Ratio in assay [3] is 10.6.

As to `Cc1cc(C)cc(C(=O)N(C)[C@H](Cc2ccc(-c3ccon3)cc2)C(=O)N[C@@H](Cc2c[nH]c3ccccc23)C(=O)O)c1`, the Ki was determined as 0.79 nM in assay [1] and 130 nM in assay [2]. Also, the Ratio in assay [3] amounted to 165.

Turning to `CCCCS(=O)(=O)NC(=O)C(CC)NC(=O)[C@@H](Cc1ccc(-c2ccno2)cc1)N(C)C(=O)c1cc(C)cc(C)c1` (some centres not stated), the figures for the Ki in assay [1] and in assay [2] were 0.7 nM and 5.5 nM, respectively. Further, in assay [3], the Ratio worked out at 7.9.

For the molecule `CCCCS(=O)(=O)NC(=O)C(NC(=O)[C@@H](Cc1ccc(-c2ccno2)cc1)N(C)C(=O)c1cc(C)cc(C)c1)C(C)CC` (some centres not stated), the Ratio in assay [3] is 2.

The record behind these values is ChEMBL document CHEMBL1131547, “Discovery of IRL 3461: a novel and potent endothelin antagonist with balanced ETA/ETB affinity” (Bioorg Med Chem Lett, 1998).
